# Reference: patent US20230346790A1, “PHARMACEUTICAL COMPOSITION FOR PREVENTION OR TREATMENT OF CANCERS ASSOCIATED WITH KRAS MUTATION” (WELLMARKER BIO CO., LTD., priority 2020, published 2023)
# “Also recorded” adds a separate entry of the source.
# What was measured:
# [1] = system: cell line R2 exhibiting secondary resistance to cetuximab (LIM1215, KRAS G13D); experiment: Tumor growth inhibition in mice transplanted with cetuximab-resistant cell line R2; assay type: in vivo, BALB/c nude mice; conditions: R2 xenograft mice
# Experimental: 5-Week-old female BALB/c nude mice were purchased and acclimatized for 1 week. […] The compound of Example 1 was orally administered when the tumor reached a size of about 100 mm^3. The compound of Example 1 was administered once a day for 2 weeks, and tumor size and body weight were measured twice a week.
# (§1) After completion of the 4-week experiment, the experimental animals were euthanized, and then the tumors were extracted and weighed. In addition, with respect to the tumor tissues, changes in expressions of pTyr-mRON, mRON, β-catenin, and cleaved caspase-3 were analyzed with immunohistochemical staining.
# [2] = system: pTyr-mRON, mRON, β-catenin, cleaved caspase-3 in tumor tissues; experiment: Immunohistochemical staining of extracted tumor tissues; assay type: in vivo, BALB/c nude mice; conditions: R2 xenograft
# Experimental: as §1
# [3] = system: pTyr-mRON, p-ERK, β-catenin, c-myc, cleaved caspase-3 in cell line R2; experiment: Western blotting of protein expression after empty vector or β-catenin transfection; assay type: cell-based
# Experimental: The parent cell line LIM1215 and the cetuximab-resistant cell line R2 were counted. 2×10^6 cells of each cell line were washed with 1x PBS once and then lysed with 1x RIPA lysis buffer. The cell lysate was reacted on ice for 20 minutes, and then centrifuged at 13,000 rpm for 20 minutes at 4° C. to obtain a supernatant. After proteins in the obtained supernatant were quantified using Bradford method, 20 µg of the protein was subjected to sodium-polyacrylamide gel electrophoresis (SDS-PAGE).
# Transfer was performed using polyvinylidene fluoride (PVDF) membrane. Then, each of phospho-RON antibody (MyBiosource, Inc., cat# MBS462024; 1:500), RON antibody (Santa Cruz Biotechnology, cat# sc-374626; 1:1,000), phospho-EGFR antibody (Cell Signaling Technology, Inc., cat# 2234; 1:1,000), EGFR antibody (Cell Signaling Technology, Inc., cat# 2232; 1:1,000), phospho-Akt antibody (Cell Signaling Technology, Inc., cat# 4060; 1:1,000), Akt antibody (Cell Signaling Technology, Inc., cat# 9272; 1:1,000), phospho-ERK antibody (Cell Signaling Technology, Inc., cat# 4370; 1:1,000), ERK antibody (Cell Signaling Technology, Inc., cat# 4695; 1:1,000), phospho-β-catenin antibody (Cell Signaling Technology, Inc., cat# 9561; 1:1,000), β-catenin antibody (Cell Signaling Technology, Inc., cat# 8480; 1:1,000), c-myc antibody (Santa Cruz Biotechnology, cat# sc-40; 1:500), and β-actin antibody (Santa Cruz Biotechnology, cat# sc-47778; 1:1,000) was diluted in 5% skim milk tris buffered saline with Tween 20 (TBS-T) solution and reacted at 4° C. overnight.
# After completion of the reaction, washing with the TBS-T solution was performed three times for 10 minutes each. Subsequently, anti-mouse-HRP or anti-rabbit-HRP (Cell Signaling Technology, Inc., cat# 7074 or 7076; 1:2,000) was diluted in the 5% skim milk TBS-T solution, and then reacted at room temperature for 2 hours. Then, washing with the TBS-T solution was performed three times for 10 minutes each, and then development was performed using an ECL solution (GE Healthcare, cat# RPN2108).
# (§2) Subsequently, all cells were collected when 48 hours had elapsed. Cell death induction efficacy was compared and analyzed using a trypan blue exclusion assay. In addition, using these samples, changes in expression of respective proteins were compared and analyzed with the western blotting method.
# [4] = system: cell line R2 exhibiting secondary resistance to cetuximab, overexpressing β-catenin; experiment: Cell death induction after β-catenin overexpression, trypan blue exclusion assay; assay type: cell-based; conditions: 48 hours
# Experimental: as §2
# [5] = system: cetuximab-resistant cell line R2 (LIM1215, KRAS G13D, RON Δ155); experiment: Cell death rate by trypan blue staining and cell counting, cetuximab-resistant line; assay type: cell-based; conditions: cetuximab-resistant cell line R2, 1 µM, 48 hours
# Experimental: (§3) The parent cell line LIM1215 and the cetuximab-resistant cell line R2 were counted, and each of them was seeded at 3×10^5 cells in a 60 mm dish. After 24 hours, treatment with 1 µM of each of the compounds of Example 1, Example 2, Example 3, Example 4, Example 5, positive control 1 (BMS-777607), positive control 2 (crizotinib), and positive control 3 (cabozantinib) was performed. After 48 hours had elapsed since the treatment, the cells were collected, resuspended in 1x phosphate buffered saline (PBS), and stained with a trypan blue solution. The stained cells were counted using a hemocytometer. Cell counting was performed in duplicate, and the mean and the standard deviation were calculated.
# parent cell line LIM1215 = experiment: Cell death rate by trypan blue staining and cell counting, cetuximab-sensitive parent line; assay type: cell-based; conditions: parent cell line LIM1215, 1 µM, 48 hours
# Experimental: as §3
# [6] = cell line R2, β-catenin overexpressed
# [7] = cell line R2 transfected with the empty vector
smiles,measurement,setting,value
"CCOc1ccn(-c2ccc(F)cc2)c(=O)c1C(=O)Nc1ccc(Oc2ccnc3cc(-c4ccc(CN5CCOCC5)cn4)sc23)c(F)c1.Cl [Example 1, 4-Ethoxy-N-[3-Fluoro-4-({2-[5-(Morpholinomethyl)Pyridine-2-yl]Thieno[3,2-b]Pyridine-7-yl}Oxy)Phenyl]-1-(4-Fluorophenyl)-2-Oxo-1,2-Dihydropyridine-3-Carboxamide Hydrochloride]","Tumor growth inhibition (TGI, %)","[1]; 15 mg/kg, oral once a day",62.3±4.5%
same,tumor size inhibition effect as compared with cetuximab,[1]; small dose,remarkably excellent tumor size inhibition effect
same,expression of cleaved caspase-3 in tumor tissue,[2],increased
same,expression of pTyr-mRON in tumor tissue,[2],decreased
same,expression of β-catenin in tumor tissue,[2],decreased
same,expression of pTyr-mRON,"[3]; cell line R2, regardless of β-catenin, western blotting",decreased
same,expression of c-myc,[3]; [6],increased again
same,expression of cleaved caspase-3,[3]; [6],decreased
same,expression of p-ERK,[3]; [6],increased again
same,expression of β-catenin,[3]; [6],increased again
same,expression of c-myc,[3]; [7],decreased
same,expression of p-ERK,[3]; [7],decreased
same,expression of β-catenin,[3]; [7],decreased
same,cell death induction efficacy,[4],reduced
same,cell death rate,[5]; Hydrochloride,high cell death rate; also recorded: cell death was effectively induced
"CCOc1ccn(-c2ccccc2)c(=O)c1C(=O)Nc1ccc(Oc2ccnc3cc(-c4ccc(CNCCOC)cn4)sc23)c(F)c1.Cl [Example 2, 4-Ethoxy-N-(3-Fluoro-4-{[2-(5-{[(2-Methoxyethyl)Amino]Methyl}Pyridine-2-yl)Thieno[3,2-b]Pyridine-7-yl]Oxy}Phenyl)-2-Oxo-1-Phenyl-1,2-Dihydropyridine-3-Carboxamide Hydrochloride]",cell death rate,[5]; Hydrochloride,cell death was effectively induced
"CCOc1ccn(-c2ccccc2)c(=O)c1C(=O)Nc1ccc(Oc2ccnc3cc(-c4ccc(CN5CCN(C)CC5)cn4)sc23)c(F)c1.Cl [Example 3, 4-Ethoxy-N-{3-Fluoro-4-[(2-{5-[(4-Methylpiperazin-1-yl)Methyl]Pyridin-2-yl}Thieno[3,2-b]Pyridin-7-yl)Oxy]Phenyl}-2-Oxo-1-Phenyl-1,2-Dihydropyridine-3-Carboxamide Hydrochloride]",cell death rate,[5]; Hydrochloride,cell death was effectively induced
"COc1cc2c(Oc3ccc(NC(=O)c4c5c(cn(-c6ccc(F)cc6)c4=O)CCO5)cc3F)ccnc2cc1OCCN1CCOCC1 [Example 4, N-(3-Fluoro-4-((6-Methoxy-7-(2-Morpholinoethoxy)Quinolin-4-yl)Oxy)Phenyl)-5-(4-Fluorophenyl)-6-Oxo-2,3,5,6-Tetrahydrofuro[3,2-c]Pyridine-7-Carboxamide]",cell death rate,[5],cell death was effectively induced
"COc1cc2c(Oc3ccc(NC(=O)c4c5c(cn(-c6ccc(F)cc6)c4=O)CCO5)cc3F)ccnc2cc1OCCCN1CC(C#N)C1 [Example 5, N-(4-((7-(3-(3-Cyanoazetidine-1-yl)Propoxy)-6-Methoxyquinoline-4-yl)Oxy)-3-Fluorophenyl)-5-(4-Fluorophenyl)-6-Oxo-2,3,5,6-Tetrahydrofuro[3,2-c]Pyridine-7-Carboxamide]",cell death rate,[5],cell death was effectively induced
"CCOc1ccn(-c2ccc(F)cc2)c(=O)c1C(=O)Nc1ccc(Oc2ccnc(N)c2Cl)c(F)c1 [positive control 1, reference compound]",cell death rate,parent cell line LIM1215,cell death was not induced
same,cell death rate,[5],cell death was not induced
"C[C@@H](Oc1cc(-c2cnn(C3CCNCC3)c2)cnc1N)c1c(Cl)ccc(F)c1Cl [positive control 2, reference compound]",cell death rate,parent cell line LIM1215,increased cell death rate
same,cell death rate,[5],cell death was not induced
